One experiment addresses human Src kinase (Homo sapiens, UniProt P12931). As to the kind of experiment: Src Inhibition Assay: Spectrophotometric Assay. The note with it: 25 nM Src, 100 μM ATP, 30° C., coupled NADH spectrophotometric assay; read-out: Ki (inhibit Src). Type of experiment: biochemical. The method, then: The compounds are evaluated as inhibitors of human Src kinase using a spectrophotometric assay.
Src Inhibition Assay: Spectrophotometric Assay
An assay buffer solution was prepared which consisted of 25 mM HEPES (pH 7.5), 10 mM MgCl2, 250 μM NADH, 3 mM phosphoenolpyruvate, 60 μg/mL pyruvate kinase, 21 μg/mL lactate dehydrogenase, 113 μM ATP and 28 nM Src. To 60 μL of this solution, in a 96 well plate, was added 2 μL of test compound stock solution in DMSO and the mixture allowed to equilibrate for 10 mins at 30° C. The enzyme reaction was initiated by the addition of 5 μL 10 mg/mL poly Glu, Tyr (4:1) prepared in 25 mM HEPES (pH 7.5). Final assay concentrations of Src and ATP were 25 nM and 100 μM respectively. Initial rate data was determined from the rate of change of absorbance at 340 nm (corresponding to stoichiometric consumption of NADH) using a Molecular Devices Spectramax plate reader (Sunnyvale, Calif.) over 10 mins at 30° C. For each Ki determination 8 data points covering the test compound concentration range of 0-7.5 μM were obtained in duplicate. Ki values were calculated from initial rate data by non-linear regression using the Prism software package (Prism 4.0a, Graphpad Software, San Diego, Calif.).

A further experiment concerns the target human Lck kinase (Homo sapiens, UniProt P06239). As to the kind of experiment: Lck Inhibition Assay: Spectrophotometric Assay. The note with it: 60 nM Lck, 500 μM ATP, 30° C., coupled NADH spectrophotometric assay; read-out: Ki (inhibit Lck). Type of experiment: biochemical. The procedure: The compounds are evaluated as inhibitors of human Lck kinase using a spectrophotometric assay.
Lck Inhibition Assay: Spectrophotometric Assay
An assay buffer solution was prepared which consisted of 25 mM HEPES (pH 7.5), 10 mM MgCl2, 250 μM NADH, 3 mM phosphoenolpyruvate, 43 μg/mL pyruvate kinase, 14 μg/mL lactate dehydrogenase, 560 μM ATP and 67 nM Lck. To 60 μL of this solution, in a 96 well plate, was added 2 μL of test compound stock solution in DMSO and the mixture allowed to equilibrate for 10 minutes at 30° C. The enzyme reaction was initiated by the addition of 5 μL 15 mg/mL poly Glu, Tyr (4:1) prepared in 25 mM HEPES (pH 7.5). Final assay concentrations of Lck and ATP are 60 nM and 500 μM respectively. Initial rate data was determined from the rate of change of absorbance at 340 nm (corresponding to stoichiometric consumption of NADH) using a Molecular Devices Spectramax plate reader (Sunnyvale, Calif.) over 10 min at 30° C. For each Ki determination 8 data points covering the test compound compound concentration range of 0-7.5 μM are obtained in duplicate. Ki values are calculated from initial rate data by non-linear regression using the Prism software package (Prism 4.0a, Graphpad Software, San Diego, Calif.).

Structures are written as SMILES. Bounds are passed on as bounds.

Sequence of human Lck kinase (P06239 whole entry): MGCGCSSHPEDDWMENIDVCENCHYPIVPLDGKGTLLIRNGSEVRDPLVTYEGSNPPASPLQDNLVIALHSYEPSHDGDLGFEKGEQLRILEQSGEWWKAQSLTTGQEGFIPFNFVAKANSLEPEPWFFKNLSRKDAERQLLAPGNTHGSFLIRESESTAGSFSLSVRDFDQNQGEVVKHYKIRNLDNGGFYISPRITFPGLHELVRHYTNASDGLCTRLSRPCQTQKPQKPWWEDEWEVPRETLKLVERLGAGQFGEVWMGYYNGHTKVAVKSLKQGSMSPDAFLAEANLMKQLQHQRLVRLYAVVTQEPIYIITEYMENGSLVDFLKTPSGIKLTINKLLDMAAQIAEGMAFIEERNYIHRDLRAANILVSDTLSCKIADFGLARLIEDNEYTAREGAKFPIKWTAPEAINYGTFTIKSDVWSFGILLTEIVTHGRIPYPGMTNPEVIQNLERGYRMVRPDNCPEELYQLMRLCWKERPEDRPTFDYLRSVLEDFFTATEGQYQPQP
Sequence of human Src kinase (P12931 whole entry): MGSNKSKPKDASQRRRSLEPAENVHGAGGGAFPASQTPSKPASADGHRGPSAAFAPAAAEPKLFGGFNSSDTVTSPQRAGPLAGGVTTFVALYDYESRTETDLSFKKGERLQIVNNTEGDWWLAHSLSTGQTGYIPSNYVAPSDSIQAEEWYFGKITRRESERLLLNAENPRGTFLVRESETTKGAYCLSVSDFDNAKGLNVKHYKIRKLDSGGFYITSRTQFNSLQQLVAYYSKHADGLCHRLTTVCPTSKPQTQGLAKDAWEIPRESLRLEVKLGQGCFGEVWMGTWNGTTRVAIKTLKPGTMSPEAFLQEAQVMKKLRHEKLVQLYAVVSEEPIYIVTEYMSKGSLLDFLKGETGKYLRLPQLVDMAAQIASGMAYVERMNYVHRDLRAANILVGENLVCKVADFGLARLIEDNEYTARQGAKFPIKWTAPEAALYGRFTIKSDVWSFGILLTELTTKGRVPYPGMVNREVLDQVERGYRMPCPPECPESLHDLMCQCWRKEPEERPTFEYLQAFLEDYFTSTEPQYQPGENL

For the molecule `Nc1nccc2c1c(-c1ccc(Oc3ccccc3)cc1)cn2C1CCCC1` [Compound I-1, 1-Cyclopentyl-3-(4-phenoxyphenyl)-1H-pyrrolo[3,2-c]pyridin-4-amine], the Ki at human Src kinase and on human Lck kinase was under 1000 nM each time.

A word on the Ki: it is the equilibrium dissociation constant of an inhibitor or competing ligand from its target.
